Test results taken from US6365634B1, “Naturally occurring compounds and their derivatives as cyclooxygenase 2 and/or 5-lipoxygenase inhibitors” (C-P Technology Limited Partnership, priority 1997, dated 2002).
Blank lines part the entries; values can stand above or below the compound they belong to.

Legend:
[1] = test system: human keratinocytes; assay: Microscopic examination of treated keratinocyte cultures; format: cell-based
[2] = test system: human keratinocyte PGE2 production; assay: Cell-based COX II assay: PGE2 production by cultured human foreskin keratinocytes (enzyme immunoassay); conditions: 5, 1.0, 0.2 and 0.04 uM, 24 hours, high calcium medium
Description: The ability of dehydroabietic acid methyl ester to inhibit the enzymatic activities of COX II and 5-LO was tested using primary cultures of human foreskin keratinocytes. Briefly, human keratinocytes were plated in 48-well plates (Nunc) at an initial density of 2.5×10^4 cells per well. The cultures were maintained in medium 154XP (Cascade Biologics) to which human keratinocyte growth supplement (Cascade Biologics) was added. Cultures were plated initially in medium 154XP containing 0.07 mM CaCl2. Upon reaching […] confluency, the media was exchanged with high calcium medium 154XP containing 1.2 mM CaCl2. Previous studies have shown that an increase in extracellular Ca^2+concentration induces the differentiation of cultured keratinocytes with a concomitant increase in the expression of COX II protein and COX II mRNA with no apparent effect on COX I expression (Leong, J., Hughes-Fulford, M., Rakhlin, A., Maclouf, J., and Goldyne, M., (1996), Exp. Cell Res., V224, p79). Twenty-four hours after switching to the high calcium media, duplicate wells were treated with dehydroabietic acid methyl ester serially diluted in ethanol to produce final concentrations of 5, 1.0, 0.2, and 0.04 uM. Companion cultures were treated with an identical dilution series of the Merck COX II-specific inhibitor DFU. Twenty-four hours later, samples were removed from each treated well (as well as vehicle-treated control wells) and the amount of PGE2 (a product of the COX II pathway) was quantified using a PGE2-specific enzyme immunoassay (Cayman Chemical). ), As was done with the previously described biochemical assays (COX I, COX II, 5-LO, and 15-LO), the percent inhibition was calculated based on a comparison between vehicle treated control cultures and cultures treated with dehydroabietic acid methyl ester or DFU (see Fractionation and Bioassay Analysis of Fractions Derived from Extract-8 above).
The ability of 4-cumylphenol to inhibit the enzymatic activity of COX II was tested using primary cultures of human foreskin keratinocytes. These cell studies were performed in an identical manner to the studies described in Example 6. […] Twenty-four hours later, samples were removed from each treated well (as well as vehicle-treated control wells) and the amount of PGE2 (a product of the COX II pathway) was quantified using a PGE2-specific enzyme immunoassay (Cayman Chemical). ), as was done with the previously described COX I, COX II, and 15-LO biochemical assays (see Example 2B). The percent inhibition was calculated based on a comparison between vehicle treated control cultures and cultures treated with 4-cumylphenol or DFU. […]
To evaluate the biological activities of 3-methoxy aniline, sufficient quantities of the compound were synthesized as detailed in Example 1C (above). […]

[3] = test system: human keratinocytes; assay: Lactate dehydrogenase (LDH) release toxicity assay; format: cell-based; conditions: highest value of any culture treated with 5, 1.0, 0.2 or 0.04 uM
Description: To address the possibility that the inhibition of both PGE2 and LTB4 production by human keratinocytes treated with dehydroabietic acid methyl ester was […], a cell lactate dehydrogenase toxicity assay (Fisher Scientific) was performed. Briefly, lactate dehydrogenase (LDH) is found intracellularly and is released only in response to toxic stimuli and/or cell death. The amount of LDH released into the media of cultured cells is indicative of the degree of toxicity occurring in that culture. To do the assay, 48-well plates of cultured human keratinocytes (as described above for the PGE2 assay) were prepared and treated with the same concentrations of dehydroabietic acid methyl ester as described above for the PGE2 and LTB4 assays. One hour prior to harvesting culture media samples from wells treated with dehydroabietic acid methyl ester, duplicate wells were treated with a cell lysis buffer (Fisher Scientific) that caused 100% cell death to occur in the treated wells. After culture media samples were collected from all wells, the amount of LDH present in each was determined using a colorometric assay (Fisher Scientific). […] The amount of LDH released into the media of cultures treated with dehydroabietic acid methyl ester as well as vehicle-control media was determined using the colorometric assay and expressed as a percentage of that released by the 100% cell death wells.
To address the possibility that the inhibition of PGE2 production by human keratinocytes treated with 4-cumylphenol was due to toxicity, a cell lactate dehydrogenase toxicity assay (Fisher Scientific) was performed. […] After culture media samples were collected from all wells, the amount of LDH present in each was determined using a colorometric assay (Fisher Scientific). […] The amount of LDH released into the media of cultures treated with dehydroabietic acid methyl ester as well as vehicle-control media was determined using the colorometric assay and expressed as a percentage of that released by the 100% cell death wells. […]

[4] = target: T1, human recombinant COX II (Homo sapiens, UniProt P35354); assay: COX II biochemical assay (3H-arachidonic acid conversion, TLC quantitation); conditions: read-out: Percent Inhibition of COX II
T1 construct: purchased Oxford Chemical
T1 sequence (P35354 18-604): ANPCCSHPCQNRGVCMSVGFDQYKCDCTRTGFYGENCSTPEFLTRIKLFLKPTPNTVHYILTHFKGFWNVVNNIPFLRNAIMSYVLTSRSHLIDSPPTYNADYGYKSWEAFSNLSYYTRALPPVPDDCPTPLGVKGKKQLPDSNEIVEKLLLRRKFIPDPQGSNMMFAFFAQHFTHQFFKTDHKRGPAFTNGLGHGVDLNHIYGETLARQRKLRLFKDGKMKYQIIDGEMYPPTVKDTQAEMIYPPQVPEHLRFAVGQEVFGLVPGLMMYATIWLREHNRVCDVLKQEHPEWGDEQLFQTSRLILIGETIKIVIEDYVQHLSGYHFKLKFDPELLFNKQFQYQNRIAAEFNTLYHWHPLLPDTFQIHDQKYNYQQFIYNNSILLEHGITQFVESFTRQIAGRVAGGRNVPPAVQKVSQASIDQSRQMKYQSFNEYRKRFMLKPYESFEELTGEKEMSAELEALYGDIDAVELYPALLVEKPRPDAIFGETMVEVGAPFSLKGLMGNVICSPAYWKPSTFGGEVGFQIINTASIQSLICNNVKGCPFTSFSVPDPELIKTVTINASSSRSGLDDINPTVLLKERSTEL
Description: Two units of recombinant COX II enzyme (corresponding to 0.8 ug total protein) was added followed by 5 uL aliquots of the peat bog extracts yielding a final concentration of the peat extracts of 25 ug/ml. All samples were run in duplicate. […] Reactions were initiated by the addition of ^3H-arachidonic acid (DuPont-NEN) at a final concentration of 50 uM. The reactions were maintained for 5 minutes at 37° C. and stopped by the addition of ice-cold methanol/acetic acid (10:1 v/v).
The assessment of cyclooxygenase activity (both COX I and II) in the presence and absence of the peat bog extracts was based on the quantitation of tlhe radiolabeled arachidonic acid metabolites prostaglandin A2 (PGA2), PGE2, and PGF2-alpha. To do this, a 50 uL sample of each reaction solution was separated via TLC on LK6DF silica plates co-spotted with arachidonic acid, PGA2, and PGF2-alpha and developed in hexane/isopropyl alcohol/ acetic acid (85:15:1 v/v). The bands were visualized by UV-vis or I2 staining and scraped into scintillation vials for quantitation. […] The total enzyme activity (At), the corrected enzyme activity in the presence of an inhibitor (Ai), and % inhibition were calculated by the following equations:
3) Percent Inhibition=100 (1−Ai/ At)

[5] = test system: human keratinocyte LTB4 production; assay: Cell-based 5-LO assay: LTB4 production by cultured human keratinocytes (enzyme immunoassay); conditions: 5, 1.0, 0.2 and 0.04 uM, 24 hours, high calcium medium
From the text: In addition to assessing the effect of dehydroabietic acid methyl ester on the production of PGE2 by human keratinocytes, the human keratinocyte culture system was also used to assess for the inhibition of LTB4 production. Keratinocytes have not been used as extensively as other cell types for 5-LO studies, however, human keratinocytes produce appreciable amounts of LTB4 and production of this eicosanoid by cultured keratinocytes is inhibited by known inhibitors of 5-LO (see FIG. 11). To assess for inhibition of LTB4 production, human keratinocytes were cultured as described above. Following introduction of the high calcium media, the identical dilution series of dehydroabietic acid methyl ester as described above in the PGE2 study was added to duplicate wells of keratinocytes. Twenty-four hours later culture media samples were removed from each well and the amount of LTB4 in each sample determined using an enzyme immunoassay specific for LTB4 (Cayman Chemical). As was done with the PGE2 assay described above, the percent inhibition was calculated based on a comparison between vehicle treated control cultures and cultures treated with dehydroabietic acid methyl ester or Rev 5901 (a specific 5-LO inhibitor; Cayman Chemical).

Compound: COc1cccc(NC(=O)C(C)(C)C)c1 [Fraction 3-M-A, propanamide, N-(3-methoxyphenyl)2,2-dimethyl]
toxicity when treated cultures were examined microscopically [1]: lack of toxicity
inhibition of PGE2 production by cultured human keratinocytes [2]: inhibited the production of PGE2
percent toxicity (LDH released) versus the 100% cell death control [3]: ≤ 10%

inhibition at 250 µM [4]: 13.3%
Compound: CS(=O)(=O)Nc1ccc([N+](=O)[O-])cc1Oc1ccccc1 [Nimesulide, reference compound]

Compound: CC1(C)OC(=O)C(c2cccc(F)c2)=C1c1ccc(S(C)(=O)=O)cc1 [DFU, reference compound]
inhibition of PGE2 production by cultured human keratinocytes [2]: Dose-dependent inhibition

Compound: CCCCCC(O)c1cccc(OCc2ccc3ccccc3n2)c1 (stereo not drawn) [REV 5901, reference compound]
inhibition of LTB4 production by cultured human keratinocytes [5]: dose-dependent inhibition
